Target: T1, c-kit autophosphorylation (Phospho c-Kit Tyr721) in HMC 1.1 (exon 11/13) cells, V654A (Homo sapiens, UniProt P10721, V560G/V654A)
T1 construct: endogenous in cells; host or cells: HMC 1.1 (exon 11/13) cells
Assay: pKIT Meso Scale Discovery (MSD) assay, inhibition of autophosphorylation of KIT, HMC1.1_V654A
Format: cell-based
Settings: Table 1, cell line not named for Table 1, b1056 names pKIT HMC1.1_V654A, read-out: Code (IC50 for inhibition of autophosphorylation of KIT, pKIT MSD assay)
Source text: In this MSD assay, specific capture antibodies for the analytes were coated in arrays in each well of a 96-well carbon electrode plate surface. The detection system used SULFO-TAG™ labels that emit light upon electrochemical stimulation initiated at the electrode surfaces of the […] and MULTI-SPOT® plates. The electrical stimulation was decoupled from the output signal, which was light and generated assays with minimal background. The goal of this assay was to assess the percent inhibition of autophosphorylation of c-kit in cells when treated with compounds of the disclosure in a dose-dependent manner.
HMC1.1 cells were maintained in IMDM media supplemented with 20% Calf Serum with Iron and 100 units/mL Penicillin-Streptomycin and grown in a 37° C. humidified tissue culture incubator. HMC1.1 cells were passaged by 1:5 dilution into fresh IMDM media supplemented with 20% Calf Serum with Iron and 100 units/mL Penicillin-Streptomycin every 5-7 days and were discarded after 20 passages.
Seeding was performed as follows: HMC cells were brought to 1×10^6 cells/mL in fresh phenol red free, serum-free, iron-free IDM media with Pen/Strep; cells were seeded/plated into respective U-bottom plate by dispensing 50 μL/well (50,000 cells) using the Multidrop, and covered and incubated cells at 37° C. in a humidified tissue culture incubator for 4 hours (starvation).
Dosing was performed as follows: The compound mother plate was prepared by adding 16 μL of compound to 24 μL of DMSO to row A, odd-numbered columns of screen matrix plate. […] Intermediate plates were prepared in V-bottom plates by dispensing 98 μL of phenol red free, serum free IMDM media with Pen/Strep into all wells. 2 μL DMSO or 2 μL 10 mM staurosporine was added to appropriate control wells. At the end of four hours, the Bravo protocol 10 cpds vertical dose MSD 2 U-plates 96-well was used to: add 2 μL from the compound plate to the intermediate plate and dose cells with 7 μL from the intermediate plate. The cells were covered and incubated at 37° C. in a humidified tissue culture incubator for 90 min. The complete lysis buffer was prepared with AlphaLISA 5× Lysis Buffer supplemented with 1× protease inhibitor cocktail and kept on ice. The cells were pelleted by centrifuging plate at 2500×g for 5 min, 4° C. and media removed. Complete lysis buffer was added (14 μL/well). The cells were covered and shaken at 4° C. on a plate shaker at 600 rpm for 30 min and kept cold
The MSD protocol was preformed as follows: Tris Wash Buffer (2L) was prepared by diluting 10× stock of Tris Wash Buffer to 1× in water. Blocking Solution was prepared by dissolving 600 mg Blocker A in 20 mL 1× Trish Wash Buffer (per plate). The Antibody Dilution Buffer was prepared by mixing 1 mL Blocking solution and 2 mL 1× Trish Wash Buffer (per plate) and kept on ice. Blocking Solution was added (150 μL/well) to each MSD plate using a multichannel repeater pipette. The plate was covered and incubated at room temperature on a plate shaker at 700 rpm for hr. The Bio Tek protocol RL-96w-wash-MSD_stacker_fromC was used to wash plates 3× with 150 μL/well. Cells were pelleted by centrifuging lysate plates at 2500×g for 5 mins. The Bravo protocol was used (transfer 25 ul supernatants from V-96 to assay plate) to transfer 25 μL sample lysate per well to each MSD plate. The plates were covered and incubated at room temperature on a plate shaker at 700 rpm for hr. The Bio Tek protocol RL-96w-wash-MSD_stacker_fromC was used to wash plates 3× with 150 μL/well. The Detection Antibody Solution was prepared by diluting the 60 μL of the 50× antibody stock in 2.94 mL of the Antibody Dilution Buffer (per plate) and kept on ice. 25 μL/well of detection antibody solution was added to each MSD plate. The plates were covered and incubated at room temperature on a plate shaker at 700 rpm for 1 hr. The Read Buffer was prepared by diluting 5 mL of 4× stock of Read Buffer to 1× in 15 mL water (per plate).

T1 sequence (P10721 26-976 V560G/V654A): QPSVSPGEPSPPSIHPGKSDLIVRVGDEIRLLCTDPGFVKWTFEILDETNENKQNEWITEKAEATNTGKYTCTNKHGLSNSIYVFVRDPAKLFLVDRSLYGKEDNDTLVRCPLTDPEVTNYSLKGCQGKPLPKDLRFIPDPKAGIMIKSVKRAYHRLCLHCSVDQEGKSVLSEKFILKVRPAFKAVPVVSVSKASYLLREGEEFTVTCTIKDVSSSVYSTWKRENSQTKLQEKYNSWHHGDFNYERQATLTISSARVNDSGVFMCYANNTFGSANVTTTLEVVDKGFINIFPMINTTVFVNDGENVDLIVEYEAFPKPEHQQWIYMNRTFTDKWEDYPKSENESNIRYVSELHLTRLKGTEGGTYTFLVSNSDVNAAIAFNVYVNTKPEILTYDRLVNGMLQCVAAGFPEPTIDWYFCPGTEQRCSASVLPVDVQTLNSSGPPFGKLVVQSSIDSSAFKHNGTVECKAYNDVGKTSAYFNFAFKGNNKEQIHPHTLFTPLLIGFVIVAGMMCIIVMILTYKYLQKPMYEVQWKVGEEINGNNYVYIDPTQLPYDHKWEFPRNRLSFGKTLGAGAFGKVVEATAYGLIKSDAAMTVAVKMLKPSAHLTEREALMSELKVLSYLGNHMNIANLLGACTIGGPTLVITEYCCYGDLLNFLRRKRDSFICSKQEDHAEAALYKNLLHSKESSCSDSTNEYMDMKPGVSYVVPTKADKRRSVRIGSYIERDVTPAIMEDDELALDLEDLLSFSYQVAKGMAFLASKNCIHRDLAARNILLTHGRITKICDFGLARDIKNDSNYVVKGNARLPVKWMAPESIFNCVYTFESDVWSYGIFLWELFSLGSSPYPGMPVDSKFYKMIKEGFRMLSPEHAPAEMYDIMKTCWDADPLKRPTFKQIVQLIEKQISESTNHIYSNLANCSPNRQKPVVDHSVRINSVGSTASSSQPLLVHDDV

Compound	IC50
[2H]C([2H])([2H])NC(=O)c1cnc(Nc2cc(N)nc(C(F)F)n2)cc1NC [Compound 6, 6-((6-amino-2-(difluoromethyl)pyrimidin-4-yl)amino)-N-(methyl-d3)-4-(methylamino)nicotinamide]	10 to 40 nM
CCNc1cc(Nc2cc(N)nc([C@@H](C)F)n2)ncc1C(=O)NC [Compound 10, (R)-6-((6-amino-2-(1-fluoroethyl)pyrimidin-4-yl)amino)-4-(ethylamino)-N-methylnicotinamide]	> 40 nM
CCNc1cc(Nc2cc(N)nc([C@H](C)F)n2)ncc1C(=O)NC [Compound 11, (S)-6-((6-amino-2-(1-fluoroethyl)pyrimidin-4-yl)amino)-4-(ethylamino)-N-methylnicotinamide]	< 10 nM
CCNC(=O)c1cnc(Nc2cc(N)nc(C(F)F)n2)cc1NC [Compound 13, 6-((6-amino-2-(difluoromethyl)pyrimidin-4-yl)amino)-N-ethyl-4-(methylamino)nicotinamide]	10 to 40 nM
CNc1cc(Nc2cc(N)nc(C(F)F)n2)ncc1-c1cn(C)nn1 [Compound 17, 2-(difluoromethyl)-N4-(5-(1-methyl-1H-1,2,3-triazol-4-yl)-4-(methylamino)pyridin-2-yl)pyrimidine-4,6-diamine]	10 to 40 nM
CNc1cc(Nc2cc(N)nc(C(F)F)n2)ncc1-c1cnn(C)n1 [Compound 18, 2-(difluoromethyl)-N4-(5-(2-methyl-2H-1,2,3-triazol-4-yl)-4-(methylamino)pyridin-2-yl)pyrimidine-4,6-diamine]	10 to 40 nM
CNC(=O)c1cnc(Nc2cc(N)nc([C@@H](C)F)n2)cc1NC(C)C [Compound 20, (R)-6-((6-amino-2-(1-fluoroethyl)pyrimidin-4-yl)amino)-4-(isopropylamino)-N-methylnicotinamide]	> 40 nM
CNC(=O)c1cnc(Nc2cc(N)nc([C@H](C)F)n2)cc1NC(C)C [Compound 21, (S)-6-((6-amino-2-(1-fluoroethyl)pyrimidin-4-yl)amino)-4-(isopropylamino)-N-methylnicotinamide]	< 10 nM
CNc1cc(Nc2cc(N)nc(C(F)F)n2)ncc1C(=O)NCC#N [Compound 22, 6-((6-amino-2-(difluoromethyl)pyrimidin-4-yl)amino)-N-(cyanomethyl)-4-(methylamino)nicotinamide]	> 40 nM
CCCNc1cc(Nc2cc(N)nc(C(F)F)n2)ncc1C(=O)NC [Compound 26, 6-((6-amino-2-(difluoromethyl)pyrimidin-4-yl)amino)-N-methyl-4-(propylamino)nicotinamide]	< 10 nM
CNc1cc(Nc2cc(N)nc(C(F)F)n2)ncc1C(=O)NC(C)C [Compound 29, 6-((6-amino-2-(difluoromethyl)pyrimidin-4-yl)amino)-N-isopropyl-4-(methylamino)nicotinamide]	< 10 nM
CCNC(=O)c1cnc(Nc2cc(N)nc(C(F)F)n2)cc1NCC [Compound 30, 6-((6-amino-2-(difluoromethyl)pyrimidin-4-yl)amino)-N-ethyl-4-(ethylamino)nicotinamide]	10 to 40 nM
Cn1cc(-c2cnc(Nc3cc(N)nc(CF)n3)cc2OC2CC2)cn1 [Compound 32, N4-(4-cyclopropoxy-5-(1-methyl-1H-pyrazol-4-yl)pyridin-2-yl)-2-(fluoromethyl)pyrimidine-4,6-diamine]	< 10 nM
CC(C)Oc1cc(Nc2cc(N)nc(CF)n2)ncc1-c1cnn(C)c1 [Compound 33, 2-(fluoromethyl)-N4-(4-isopropoxy-5-(1-methyl-1H-pyrazol-4-yl)pyridin-2-yl)pyrimidine-4,6-diamine]	< 10 nM
CCOc1cc(Nc2cc(N)nc(C(F)F)n2)ncc1-c1cnn(C)c1 [Compound 34, 2-(difluoromethyl)-N4-(4-ethoxy-5-(1-methyl-1H-pyrazol-4-yl)pyridin-2-yl)pyrimidine-4,6-diamine]	< 10 nM

The remaining lines, values ahead:

IC50	Compound
10 to 40 nM	CNc1cc(Nc2cc(N)nc(CF)n2)ncc1C(=O)NC1CC1 [Compound 7, 6-((6-amino-2-(fluoromethyl)pyrimidin-4-yl)amino)-N-cyclopropyl-4-(methylamino)nicotinamide]
< 10 nM	CNC(=O)c1cnc(Nc2cc(N)nc(CF)n2)cc1NC1CC1 [Compound 8, 6-((6-amino-2-(fluoromethyl)pyrimidin-4-yl)amino)-4-(cyclopropylamino)-N-methylnicotinamide]
< 10 nM	CNC(=O)c1cnc(Nc2cc(N)nc(CF)n2)cc1NC(C)C [Compound 9, 6-((6-amino-2-(fluoromethyl)pyrimidin-4-yl)amino)-4-(isopropylamino)-N-methylnicotinamide]
< 10 nM	CCNc1cc(Nc2cc(N)nc(C(F)F)n2)ncc1C(=O)NC [Compound 12, 6-((6-amino-2-(difluoromethyl)pyrimidin-4-yl)amino)-4-(ethylamino)-N-methylnicotinamide]
< 10 nM	CNC(=O)c1cnc(Nc2cc(N)nc(CF)n2)cc1NC1CCC1 [Compound 14, 6-((6-amino-2-(fluoromethyl)pyrimidin-4-yl)amino)-4-(cyclobutylamino)-N-methylnicotinamide]
10 to 40 nM	CNC(=O)c1cnc(Nc2cc(N)nc([C@H](C)F)n2)cc1NC1CC1 [Compound 15, (S)-6-((6-amino-2-(1-fluoroethyl)pyrimidin-4-yl)amino)-4-(cyclopropylamino)-N-methylnicotinamide]
> 40 nM	CNC(=O)c1cnc(Nc2cc(N)nc(CF)n2)cc1NC1COC1 [Compound 19, 6-((6-amino-2-(fluoromethyl)pyrimidin-4-yl)amino)-N-methyl-4-(oxetan-3-ylamino)nicotinamide]
< 10 nM	CNC(=O)c1cnc(Nc2cc(N)nc(C(F)F)n2)cc1NC1CC1 [Compound 23, 6-((6-amino-2-(difluoromethyl)pyrimidin-4-yl)amino)-4-(cyclopropylamino)-N-methylnicotinamide]
< 10 nM	CNc1cc(Nc2cc(N)nc(C(F)F)n2)ncc1C(=O)NC1CC1 [Compound 24, 6-((6-amino-2-(difluoromethyl)pyrimidin-4-yl)amino)-N-cyclopropyl-4-(methylamino)nicotinamide]
< 10 nM	[2H]C([2H])([2H])NC(=O)c1cnc(Nc2cc(N)nc(C(F)F)n2)cc1NC1CC1 [Compound 31, 6-((6-amino-2-(difluoromethyl)pyrimidin-4-yl)amino)-4-(cyclopropylamino)-N-(methyl-d3)nicotinamide]
> 40 nM	CNC(=O)c1cnc(Nc2cc(N)nc(CF)n2)cc1N[C@@H]1CCOC1 [Compound 35, (R)-6-((6-amino-2-(fluoromethyl)pyrimidin-4-yl)amino)-N-methyl-4-((tetrahydrofuran-3-yl)amino)nicotinamide]
> 40 nM	CNC(=O)c1cnc(Nc2cc(N)nc(CF)n2)cc1N[C@H]1CCOC1 [Compound 36, (S)-6-((6-amino-2-(fluoromethyl)pyrimidin-4-yl)amino)-N-methyl-4-((tetrahydrofuran-3-yl)amino)nicotinamide]
< 10 nM	CNC(=O)c1cnc(Nc2cc(N)nc(C(F)F)n2)cc1NC1CCC1 [Compound 37, 6-((6-amino-2-(difluoromethyl)pyrimidin-4-yl)amino)-4-(cyclobutylamino)-N-methylnicotinamide]
< 10 nM	CCNC(=O)c1cnc(Nc2cc(N)nc(C(F)F)n2)cc1NC1CC1 [Compound 38, 6-((6-amino-2-(difluoromethyl)pyrimidin-4-yl)amino)-4-(cyclopropylamino)-N-ethylnicotinamide]

— US20250270190A1, “KIT INHIBITORS” (BLUEPRINT MEDICINES CORPORATION, priority 2022, published 2025)
